Assay results as given in US20220162192A1 (ESCAPE Bio, Inc., priority 2019, published 2022).
Read-outs that look alike come from different tables or passages of the source.

Tests used:
[1] = biological target: T1, Recombinant wild type LRRK2 protein (Homo sapiens, UniProt Q5S007); experiment: LanthaScreen Kinase Activity Assay (TR-FRET), wild type LRRK2; format: biochemical; details: 25 μM ATP, 400 nM LRRKtide, 2.9 nM kinase, 60 min at room temperature, read-out: LRRK2 WT IC50
T1 construct: purchased Life Technologies PR8604B
T1 sequence (Q5S007 whole entry): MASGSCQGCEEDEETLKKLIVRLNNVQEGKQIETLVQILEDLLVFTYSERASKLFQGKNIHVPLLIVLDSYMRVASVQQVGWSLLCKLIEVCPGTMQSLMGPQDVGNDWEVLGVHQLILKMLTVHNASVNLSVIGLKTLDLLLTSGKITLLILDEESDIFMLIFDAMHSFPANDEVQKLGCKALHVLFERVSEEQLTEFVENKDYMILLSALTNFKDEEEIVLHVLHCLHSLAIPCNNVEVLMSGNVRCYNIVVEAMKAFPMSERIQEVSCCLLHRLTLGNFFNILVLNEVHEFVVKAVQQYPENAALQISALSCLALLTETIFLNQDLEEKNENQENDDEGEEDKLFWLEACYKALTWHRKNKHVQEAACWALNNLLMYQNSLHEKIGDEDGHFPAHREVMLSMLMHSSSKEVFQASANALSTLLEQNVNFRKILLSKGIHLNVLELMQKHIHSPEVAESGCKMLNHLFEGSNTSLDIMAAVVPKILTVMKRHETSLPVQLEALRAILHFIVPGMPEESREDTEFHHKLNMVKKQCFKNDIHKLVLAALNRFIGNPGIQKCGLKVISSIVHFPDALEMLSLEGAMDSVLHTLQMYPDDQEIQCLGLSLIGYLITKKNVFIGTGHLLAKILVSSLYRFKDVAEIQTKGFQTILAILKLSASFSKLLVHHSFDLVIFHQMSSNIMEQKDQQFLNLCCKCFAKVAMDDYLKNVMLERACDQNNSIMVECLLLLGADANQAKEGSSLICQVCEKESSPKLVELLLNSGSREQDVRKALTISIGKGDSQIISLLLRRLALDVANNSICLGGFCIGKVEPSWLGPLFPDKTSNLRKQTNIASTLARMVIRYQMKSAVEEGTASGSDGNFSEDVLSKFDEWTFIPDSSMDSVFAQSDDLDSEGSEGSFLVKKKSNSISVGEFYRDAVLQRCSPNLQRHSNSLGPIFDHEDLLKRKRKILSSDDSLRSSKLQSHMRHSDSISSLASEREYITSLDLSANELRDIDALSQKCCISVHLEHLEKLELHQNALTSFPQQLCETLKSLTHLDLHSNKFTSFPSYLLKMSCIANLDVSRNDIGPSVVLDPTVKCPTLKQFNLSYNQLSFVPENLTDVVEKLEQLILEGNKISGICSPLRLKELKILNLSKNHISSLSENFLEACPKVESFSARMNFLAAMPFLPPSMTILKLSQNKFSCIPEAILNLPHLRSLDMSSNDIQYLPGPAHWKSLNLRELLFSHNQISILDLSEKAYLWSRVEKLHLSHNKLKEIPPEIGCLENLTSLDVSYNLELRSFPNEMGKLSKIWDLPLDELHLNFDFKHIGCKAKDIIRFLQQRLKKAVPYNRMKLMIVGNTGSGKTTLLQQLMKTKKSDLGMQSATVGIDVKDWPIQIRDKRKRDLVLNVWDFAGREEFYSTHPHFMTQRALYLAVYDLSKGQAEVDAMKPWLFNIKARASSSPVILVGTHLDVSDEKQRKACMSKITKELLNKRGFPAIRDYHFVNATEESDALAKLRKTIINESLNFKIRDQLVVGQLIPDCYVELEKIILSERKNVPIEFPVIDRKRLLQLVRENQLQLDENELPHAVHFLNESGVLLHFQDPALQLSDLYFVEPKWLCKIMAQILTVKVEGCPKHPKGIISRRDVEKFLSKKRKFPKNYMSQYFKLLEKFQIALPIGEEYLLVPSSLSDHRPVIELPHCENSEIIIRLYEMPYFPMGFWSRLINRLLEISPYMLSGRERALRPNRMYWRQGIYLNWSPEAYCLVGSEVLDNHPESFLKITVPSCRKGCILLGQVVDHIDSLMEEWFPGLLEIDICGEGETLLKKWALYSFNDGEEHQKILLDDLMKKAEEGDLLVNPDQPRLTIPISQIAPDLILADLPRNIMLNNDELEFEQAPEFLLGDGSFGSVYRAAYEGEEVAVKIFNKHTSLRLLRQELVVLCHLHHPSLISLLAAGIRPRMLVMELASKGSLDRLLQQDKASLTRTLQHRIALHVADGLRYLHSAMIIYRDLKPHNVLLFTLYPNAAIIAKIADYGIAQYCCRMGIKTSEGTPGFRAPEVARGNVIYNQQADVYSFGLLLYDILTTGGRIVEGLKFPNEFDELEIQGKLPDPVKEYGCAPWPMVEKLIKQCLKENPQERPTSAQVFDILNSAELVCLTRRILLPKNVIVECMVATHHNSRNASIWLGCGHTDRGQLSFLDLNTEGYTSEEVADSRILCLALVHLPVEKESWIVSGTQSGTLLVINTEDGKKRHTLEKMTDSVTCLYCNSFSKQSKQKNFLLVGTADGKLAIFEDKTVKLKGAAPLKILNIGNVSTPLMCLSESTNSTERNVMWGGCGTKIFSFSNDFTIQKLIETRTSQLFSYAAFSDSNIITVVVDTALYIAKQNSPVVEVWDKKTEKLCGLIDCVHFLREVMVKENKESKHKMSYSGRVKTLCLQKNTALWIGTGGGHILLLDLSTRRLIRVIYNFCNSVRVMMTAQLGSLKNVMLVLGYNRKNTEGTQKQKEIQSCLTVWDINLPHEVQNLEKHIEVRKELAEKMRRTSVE
Procedure, shortened: (§1)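 Recombinant wild-type or G2019S LRRK2 (2.9 nM final) phosphorylated fluorescein-LRRKtide (400 nM) with 25 μM ATP in 50 mM Tris pH 8.5, 5 mM MgCl2, 1 mM EGTA, 0.01% Brij-35, 2 mM DTT for 60 min at RT. After EDTA stop, Tb-anti-pERM TR-FRET (520/495 nm ratio) was read. IC50 values came from 11-point, 3-fold compound dilutions.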

[2] = biological target: T2, Recombinant G2019S-LRRK2 protein (Homo sapiens, UniProt Q5S007, G2019S); experiment: LanthaScreen Kinase Activity Assay (TR-FRET), G2019S-LRRK2; format: biochemical; details: class symbols; 25 μM ATP, 400 nM LRRKtide, 2.9 nM kinase, 60 min at room temperature
T2 construct: purchased Life Technologies PV4881
T2 sequence (Q5S007 whole entry G2019S): as the sequence (Q5S007 whole entry) above, with G2019S counted along it
Procedure, shortened: as §1

Row | Compound | IC50 ([1]; class symbols) | IC50 [2] | IC50 ([1]; numeric bound instead of class symbol)
1 | CC1(C)c2nncn2CCN1C(=O)Nc1ccc2[nH]nc(-c3ccoc3)c2c1 [Example 172, N-(3-(Furan-3-yl)-1H-indazol-5-yl)-8,8-dimethyl-5,6-dihydro-[1,2,4]triazolo[4,3-a]pyrazine-7(8H)-carboxamide] | 100 to 1000 nM | 100 to 1000 nM | –
2 | Cc1cc2nn(C)nc2cc1C(=O)Nc1ccc2[nH]nc(C)c2c1 [Example 3, 2,6-Dimethyl-N-(3-methyl-1H-indazol-5-yl)-2H-benzo[d][1,2,3]triazole-5-carboxamide] | 1000 to 10000 nM | 1000 to 10000 nM | –
3 | O=C(Nc1ccc2[nH]nc(-c3ccoc3)c2c1)c1cnc2ccnn2c1 [Example 130, N-(3-(Furan-3-yl)-1H-indazol-5-yl)pyrazolo[1,5-a]pyrimidine-6-carboxamide] | 100 to 1000 nM | 100 to 1000 nM | –
4 | Cc1n[nH]c2ccc(NC(=O)c3ccc4nnc(C)n4c3)cc12 [Example 8, 3-Methyl-N-(3-methyl-1H-indazol-5-yl)-[1,2,4]triazolo[4,3-a]pyridine-6-carboxamide] | 1000 to 10000 nM | 1000 to 10000 nM | –
5 | Cn1ncc2c(F)c(C(=O)Nc3ccc4[nH]nc(-c5cnccc5C(F)(F)F)c4c3)c(F)cc21 [Example 91, 4,6-Difluoro-1-methyl-N-(3-(4-(trifluoromethyl)pyridin-3-yl)-1H-indazol-5-yl)-1H-indazole-5-carboxamide] | 1000 to 10000 nM | 100 to 1000 nM | –
6 | Cc1n[nH]c2ccc(NC(=O)c3ccn4cnnc4c3)cc12 [Example 5, N-(3-Methyl-1H-indazol-5-yl)-[1,2,4]triazolo[4,3-a]pyridine-7-carboxamide] | 1000 to 10000 nM | 1000 to 10000 nM | –
7 | Cc1cc2cc[nH]c2cc1C(=O)Nc1ccc2[nH]nc(-c3ccccc3)c2c1 [Example 22, 5-Methyl-N-(3-phenyl-1H-indazol-5-yl)-1H-indole-6-carboxamide] | 1000 to 10000 nM | 100 to 1000 nM | –
8 | COc1ccc(C)c(-c2n[nH]c3ccc(NC(=O)c4c(F)cc5c(cnn5C)c4F)cc23)c1 [Example 90, 4,6-Difluoro-N-(3-(5-methoxy-2-methylphenyl)-1H-indazol-5-yl)-1-methyl-1H-indazole-5-carboxamide] | 1000 to 10000 nM | 100 to 1000 nM | –
9 | Cc1n[nH]c2ccc(NC(=O)c3cc4nn[nH]c4cc3C(F)(F)F)cc12 [Example 10, N-(3-Methyl-1H-indazol-5-yl)-6-(trifluoromethyl)-1H-benzo[d][1,2,3]triazole-5-carboxamide] | – | 1000 to 10000 nM | > 10000 nM
10 | Cn1ncc2c(F)c(C(=O)Nc3ccc4[nH]nc(-c5cncc(N6CCOCC6)c5)c4c3)c(F)cc21 [Example 98, 4,6-Difluoro-1-methyl-N-(3-(5-morpholinopyridin-3-yl)-1H-indazol-5-yl)-1H-indazole-5-carboxamide] | ≤ 100 nM | ≤ 100 nM | –
11 | Cc1ccncc1-c1n[nH]c2ccc(NC(=O)c3c(F)cc4c(cnn4C)c3F)cc12 [Example 38, 4,6-Difluoro-1-methyl-N-(3-(4-methylpyridin-3-yl)-1H-indazol-5-yl)-1H-indazole-5-carboxamide] | 1000 to 10000 nM | 1000 to 10000 nM | –

The next lines start with the values.

Row | IC50 ([1]; class symbols) | IC50 [2] | IC50 ([1]; numeric bound instead of class symbol) | Compound
12 | ≤ 100 nM | ≤ 100 nM | – | COc1cncc(-c2n[nH]c3ccc(NC(=O)c4c(F)cc5c(cnn5C)c4F)cc23)c1 [Example 82, 4,6-Difluoro-N-(3-(5-methoxypyridin-3-yl)-1H-indazol-5-yl)-1-methyl-1H-indazole-5-carboxamide]
13 | ≤ 100 nM | ≤ 100 nM | – | Cn1ncc2c(F)c(C(=O)Nc3ccc4[nH]nc(-c5ccsc5)c4c3)c(F)cc21 [Example 100, 4,6-Difluoro-1-methyl-N-(3-(thiophen-3-yl)-1H-indazol-5-yl)-1H-indazole-5-carboxamide]
14 | ≤ 100 nM | ≤ 100 nM | – | Cn1ncc2cc(C(=O)Nc3ccc4[nH]nc(-c5ccoc5)c4c3)ccc21 [Example 133, N-(3-(Furan-3-yl)-1H-indazol-5-yl)-1-methyl-1H-indazole-5-carboxamide]
15 | ≤ 100 nM | ≤ 100 nM | – | Cc1cc(-c2n[nH]c3ccc(NC(=O)c4c(F)cc5c(cnn5C)c4F)cc23)cc(C)n1 [Example 83, N-(3-(2,6-Dimethylpyridin-4-yl)-1H-indazol-5-yl)-4,6-difluoro-1-methyl-1H-indazole-5-carboxamide]
16 | ≤ 100 nM | ≤ 100 nM | – | Cc1cccc(-c2n[nH]c3ccc(NC(=O)c4c(F)cc5c(cnn5C)c4F)cc23)c1 [Example 76, 4,6-Difluoro-1-methyl-N-(3-(m-tolyl)-1H-indazol-5-yl)-1H-indazole-5-carboxamide]
17 | ≤ 100 nM | ≤ 100 nM | – | Cn1cnc2ccc(C(=O)Nc3ccc4[nH]nc(-c5ccoc5)c4c3)cc21 [Example 131, N-(3-(Furan-3-yl)-1H-indazol-5-yl)-1-methyl-1H-benzo[d]imidazole-6-carboxamide]
18 | ≤ 100 nM | ≤ 100 nM | – | Cc1cn2cncc2cc1C(=O)Nc1ccc2[nH]nc(-c3ccoc3)c2c1 [Example 152, N-(3-(Furan-3-yl)-1H-indazol-5-yl)-6-methylimidazo[1,5-a]pyridine-7-carboxamide]
19 | ≤ 100 nM | ≤ 100 nM | – | Cc1cc2cncn2c(C)c1C(=O)Nc1ccc2[nH]nc(-c3ccoc3)c2c1 [Example 151, N-(3-(Furan-3-yl)-1H-indazol-5-yl)-5,7-dimethylimidazo[1,5-a]pyridine-6-carboxamide]
20 | ≤ 100 nM | ≤ 100 nM | – | Cc1cn2cnnc2c(C)c1C(=O)Nc1ccc2[nH]nc(-c3ccccc3)c2c1 [Example 57, 6,8-Dimethyl-N-(3-phenyl-1H-indazol-5-yl)-[1,2,4]triazolo[4,3-a]pyridine-7-carboxamide]
21 | 100 to 1000 nM | ≤ 100 nM | – | Cc1cc2nncn2c(C)c1C(=O)Nc1ccc2[nH]nc(C)c2c1 [Example 61, 5,7-Dimethyl-N-(3-methyl-1H-indazol-5-yl)-[1,2,4]triazolo[4,3-a]pyridine-6-carboxamide]
22 | 100 to 1000 nM | ≤ 100 nM | – | Cc1nocc1-c1n[nH]c2ccc(NC(=O)c3c(F)cc4c(cnn4C)c3F)cc12 [Example 30, 4,6-Difluoro-1-methyl-N-(3-(3-methylisoxazol-4-yl)-1H-indazol-5-yl)-1H-indazole-5-carboxamide]
23 | 100 to 1000 nM | ≤ 100 nM | – | Cn1ncc2c(F)c(C(=O)Nc3ccc4[nH]nc(N5Cc6ccccc6C5)c4c3)c(F)cc21 [Example 109, 4,6-Difluoro-N-(3-(isoindolin-2-yl)-1H-indazol-5-yl)-1-methyl-1H-indazole-5-carboxamide]
24 | 100 to 1000 nM | ≤ 100 nM | – | COc1ncccc1-c1n[nH]c2ccc(NC(=O)c3c(F)cc4c(cnn4C)c3F)cc12 [Example 81, 4,6-Difluoro-N-(3-(2-methoxypyridin-3-yl)-1H-indazol-5-yl)-1-methyl-1H-indazole-5-carboxamide]
25 | ≤ 100 nM | ≤ 100 nM | – | Cc1cc2cnsc2nc1C(=O)Nc1ccc2[nH]nc(-c3cnco3)c2c1 [Example 168, 5-Methyl-N-(3-(oxazol-5-yl)-1H-indazol-5-yl)isothiazolo[5,4-b]pyridine-6-carboxamide]
26 | 100 to 1000 nM | ≤ 100 nM | – | Cn1ncc2cc(C(=O)Nc3ccc4[nH]nc(-c5cnco5)c4c3)ncc21 [Example 167, 1-Methyl-N-(3-(oxazol-5-yl)-1H-indazol-5-yl)-1H-pyrazolo[3,4-c]pyridine-5-carboxamide]
